# Reference: patent US12435059B2, “AMP-activated protein kinase inhibitors and methods of making and using the same” (The Regents of the University of Colorado, priority 2019, dated 2025)
# Read-outs that look alike come from different tables or passages of the source.
# Columns and labels:
# Assay in all cases: biochemical
# Format in all cases: binding
# 468 kinases [1] = molecular target: 468 kinases (Homo sapiens, UniProt O00506); conditions: YSK1; read-out: % Inhibition @ 100 nM
# 468 kinases [2] = molecular target: 468 kinases (Homo sapiens, UniProt O14965); conditions: AURKA; read-out: % Inhibition @ 100 nM
# 468 kinases [3] = molecular target: 468 kinases (Homo sapiens, UniProt O43683); conditions: BUB1; read-out: % Inhibition @ 100 nM
# 468 kinases [4] = molecular target: 468 kinases (Homo sapiens, UniProt O75747); conditions: PIK3C2G; read-out: % Inhibition @ 100 nM
# 468 kinases [5] = molecular target: 468 kinases (Homo sapiens, UniProt P00519, M351T); conditions: ABL1 (M351T)-phosphorylated; read-out: % Inhibition @ 100 nM
# 468 kinases [6] = molecular target: 468 kinases (Homo sapiens, UniProt P07948); conditions: LYN; read-out: % Inhibition @ 100 nM
# 468 kinases [7] = molecular target: 468 kinases (Homo sapiens, UniProt P10721, D816V); conditions: KIT(D816V); read-out: % Inhibition @ 100 nM
# 468 kinases [8] = molecular target: 468 kinases (Homo sapiens, UniProt P10721, V559D/V654A); conditions: KIT(V559D,V654A); read-out: % Inhibition @ 100 nM
# 468 kinases [9] = molecular target: 468 kinases (Homo sapiens, UniProt P16234); conditions: PDGFRA; read-out: % Inhibition @ 100 nM
# 468 kinases [10] = molecular target: 468 kinases (Homo sapiens, UniProt P19525); conditions: PRKR; read-out: % Inhibition @ 100 nM
# 468 kinases [11] = molecular target: 468 kinases (Homo sapiens, UniProt P29320); conditions: EPHA3; read-out: % Inhibition @ 100 nM
# 468 kinases [12] = molecular target: 468 kinases (Homo sapiens, UniProt P32298); conditions: GRK4; read-out: % Inhibition @ 100 nM
# 468 kinases [13] = molecular target: 468 kinases (Homo sapiens, UniProt P42336, M1043I); conditions: PIK3CA(M10431); read-out: % Inhibition @ 100 nM
# 468 kinases [14] = molecular target: 468 kinases (Homo sapiens, UniProt P51813); conditions: BMX; read-out: % Inhibition @ 100 nM
# 468 kinases [15] = molecular target: 468 kinases (Homo sapiens, UniProt P68400); conditions: CSNK2A1; read-out: % Inhibition @ 100 nM
# 468 kinases [16] = molecular target: 468 kinases (Homo sapiens, UniProt Q15139); conditions: PRKD1; read-out: % Inhibition @ 100 nM
# 468 kinases [17] = molecular target: 468 kinases (Homo sapiens, UniProt Q15349); conditions: read-out: % Inhibition @ 100 nM
# 468 kinases [18] = molecular target: 468 kinases (Homo sapiens, UniProt Q15375); conditions: EPHA7; read-out: % Inhibition @ 100 nM
# 468 kinases [19] = molecular target: 468 kinases (Homo sapiens, UniProt Q15746); conditions: MYLK; read-out: % Inhibition @ 100 nM
# 468 kinases [20] = molecular target: 468 kinases (Homo sapiens, UniProt Q15759); conditions: p38-beta; read-out: % Inhibition @ 100 nM
# 468 kinases [21] = molecular target: 468 kinases (Homo sapiens, UniProt Q52WX2); conditions: SBK1; read-out: % Inhibition @ 100 nM
# 468 kinases [22] = molecular target: 468 kinases (Homo sapiens, UniProt Q59H18); conditions: TNNI3K; read-out: % Inhibition @ 100 nM
# 468 kinases [23] = molecular target: 468 kinases (Homo sapiens, UniProt Q6PHR2); conditions: ULK3; read-out: % Inhibition @ 100 nM
# 468 kinases [24] = molecular target: 468 kinases (Homo sapiens, UniProt Q92630); conditions: DYRK2; read-out: % Inhibition @ 100 nM
# 468 kinases [25] = molecular target: 468 kinases (Homo sapiens, UniProt Q92918); conditions: HPK1; read-out: % Inhibition @ 100 nM
# 468 kinases [26] = molecular target: 468 kinases (Homo sapiens, UniProt Q96J92); conditions: WNK4; read-out: % Inhibition @ 100 nM
# 468 kinases [27] = molecular target: 468 kinases (Homo sapiens, UniProt Q96NX5); conditions: CAMK1G; read-out: % Inhibition @ 100 nM
# 468 kinases [28] = molecular target: 468 kinases (Homo sapiens, UniProt Q9H093); conditions: SNARK; read-out: % Inhibition @ 100 nM
# 468 kinases [29] = molecular target: 468 kinases (Homo sapiens, UniProt Q9UF33); conditions: EPHA6; read-out: % Inhibition @ 100 nM
# 468 kinases [30] = molecular target: 468 kinases (Homo sapiens, UniProt Q9UM73); conditions: ALK; read-out: % Inhibition @ 100 nM
# 468 kinases [31] = molecular target: 468 kinases (Homo sapiens, UniProt Q9Y616); conditions: IRAK3; read-out: % Inhibition @ 100 nM
# 468 kinases [32] = molecular target: 468 kinases (Homo sapiens, UniProt Q9Y6M4); conditions: CSNK1G3; read-out: % Inhibition @ 100 nM
SMILES,inhibition at 0.1 µM (468 kinases [1]),inhibition at 0.1 µM (468 kinases [2]),inhibition at 0.1 µM (468 kinases [3]),inhibition at 0.1 µM (468 kinases [4]),inhibition at 0.1 µM (468 kinases [5]),inhibition at 0.1 µM (468 kinases [6]),inhibition at 0.1 µM (468 kinases [7]),inhibition at 0.1 µM (468 kinases [8]),inhibition at 0.1 µM (468 kinases [9]),inhibition at 0.1 µM (468 kinases [10]),inhibition at 0.1 µM (468 kinases [11]),inhibition at 0.1 µM (468 kinases [12]),inhibition at 0.1 µM (468 kinases [13]),inhibition at 0.1 µM (468 kinases [14]),inhibition at 0.1 µM (468 kinases [15]),inhibition at 0.1 µM (468 kinases [16]),inhibition at 0.1 µM (468 kinases [17]; RSK3(Kin.Dom.1-N-terminal)),inhibition at 0.1 µM (468 kinases [17]; RSK3(Kin.Dom.2-C-terminal)),inhibition at 0.1 µM (468 kinases [18]),inhibition at 0.1 µM (468 kinases [19]),further results
"CCN(CC)CCNC(=O)c1c(C)[nH]c(/C=C2\C(=O)Nc3ccc(CCO)cc32)c1C [Compound No. 10, (Z)—N-(2-(Diethylamino)ethyl)-5-((5-(2-hydroxyethyl)-2-oxoindolin-3-ylidene)methyl)-2,4-dimethyl-1H-pyrrole-3-carboxamide]",21%,0%,0%,19%,24%,6%,12%,79%,84%,2%,0%,79%,0%,11%,0%,0%,13%,0%,0%,49%,inhibition at 0.1 µM (468 kinases [20]): 80%; inhibition at 0.1 µM (468 kinases [21]): 40%; inhibition at 0.1 µM (468 kinases [22]): 0%; inhibition at 0.1 µM (468 kinases [23]): 87%; inhibition at 0.1 µM (468 kinases [24]): 18%; inhibition at 0.1 µM (468 kinases [25]): 96.6%; inhibition at 0.1 µM (468 kinases [26]): 0%; inhibition at 0.1 µM (468 kinases [27]): 0%; inhibition at 0.1 µM (468 kinases [28]): 80%; inhibition at 0.1 µM (468 kinases [29]): 0%; inhibition at 0.1 µM (468 kinases [30]): 29%; inhibition at 0.1 µM (468 kinases [31]): 0%; inhibition at 0.1 µM (468 kinases [32]): 6%
"CCN(CC)CCNC(=O)c1c(C)[nH]c(/C=C2\C(=O)Nc3ccc(CCC(N)=O)cc32)c1C [Compound No. 16, (Z)-5-((5-(3-Amino-3-oxopropyl)-2-oxoindolin-3-ylidene)methyl)-N-(2-(diethylamino)ethyl)-2,4-dimethyl-1H-pyrrole-3-carboxamide]",22%,41%,21%,4%,22%,9%,24%,0%,55%,29%,14%,72%,12%,8%,78%,0%,7%,19%,1%,34%,inhibition at 0.1 µM (468 kinases [20]): 0%; inhibition at 0.1 µM (468 kinases [21]): 58%; inhibition at 0.1 µM (468 kinases [22]): 5%; inhibition at 0.1 µM (468 kinases [23]): 25%; inhibition at 0.1 µM (468 kinases [24]): 34%; inhibition at 0.1 µM (468 kinases [25]): 95.2%; inhibition at 0.1 µM (468 kinases [26]): 55%; inhibition at 0.1 µM (468 kinases [27]): 37%; inhibition at 0.1 µM (468 kinases [28]): 81%; inhibition at 0.1 µM (468 kinases [29]): 0%; inhibition at 0.1 µM (468 kinases [30]): 54%; inhibition at 0.1 µM (468 kinases [31]): 100%; inhibition at 0.1 µM (468 kinases [32]): 5%
